Reference: patent publication US20150274703A1, “1H-Indole-3-Carboxamide Derivatives And Use Thereof As P2Y12 Antagonists” (SANOFI, priority 2012, published 2015)
Where a name gives a salt, the structure may show the parent alone. Read-outs that look alike come from different tables or passages of the source.

Columns and labels:
[1] = tested on: platelet aggregation (human blood, platelet-rich plasma); assay: Inhibition of platelet aggregation in vitro (human blood); type: cell-based; settings: human PRP from healthy volunteers, ADP-induced, size of aggregation as height
Experimental: Inhibition of Platelet Aggregation In Vitro (Human Blood) Blood is taken from healthy volunteers, using 20 ml syringes containing 2 ml of buffered sodium citrate. The blood is transferred into polypropylene tubes and centrifuged for 5 minutes (100 g) at ambient temperature (without using the brake of the centrifuge). The platelet-rich plasma (PRP) supernatant is then removed, diluted, and counted for platelets before being used in the aggregation measurements. The platelet aggregation measurements are carried out at 37° C. in glass tubes (Chrono-Log aggregometer—Kordia). 4 μl of the test compound (solution 100 times more concentrated than the desired final concentration, in DMSO) are mixed with 392 μl of fresh PRP, and incubated for 1 minute with stirring. Then, 4 μl of a solution of ADP at 250 μM are added to the mixture. The aggregation measurements are monitored for 6 to 8 minutes, with constant stirring, by recording the variations in the optical density according to the method of G.V.R. BORN (Born Nature (1962) 194, 927). The results are calculated using the size of the aggregation expressed as height, and expressed by the percentage inhibition.

[2] = tested on: platelet aggregation (rat blood, platelet-rich plasma); assay: Inhibition of platelet aggregation ex vivo (rat blood); type: in vivo
Experimental: The platelet aggregation measurements are carried out at 37° C. in glass tubes (Chrono-Log aggregometer—Kordia). 4 μl of the test compound (solution 100 times more concentrated than the desired final concentration, in DMSO) are mixed with 392 μl of fresh PRP, and incubated for 1 minute with stirring. Then, 4 μl of a solution of ADP at 250 μM are added to the mixture. The aggregation measurements are monitored for 6 to 8 minutes, with constant stirring, by recording the variations in the optical density according to the method of G.V.R. BORN (Born Nature (1962) 194, 927). Inhibition of Platelet Aggregation Ex Vivo (Rat Blood) Male rats of the Sprague-Dawley strain, weighing 250-300 g, are used in a proportion of 6 animals per batch. Each test compound is diluted in a glucose solution (5% glucose) containing 5% of cremophor and 3% of glycofurol. […] The sample is taken on 3.8% sodium citrate (1 volume for 9 blood volumes) by abdominal aortic puncture after the animal has been anesthetized with sodium pentobarbital. The platelet-rich plasma (PRP) is obtained by centrifugation of the blood at 300 g for 5 minutes, and the platelet aggregation measurements are carried out as described above. The results are calculated using the area under the curve of absorbance measured for 6 minutes, and expressed by the percentage (%) inhibition.

[3] = tested on: platelet aggregation (rat blood, platelet-rich plasma); assay: Inhibition of platelet aggregation in vitro (rat blood); type: cell-based; settings: 0.1 h, Sprague-Dawley rat PRP, area under the curve of absorbance over 6 minutes
Experimental: Inhibition of Platelet Aggregation In Vitro (Rat Blood) Blood is taken from male rats of the Sprague-Dawley strain, weighing 250-300 g. The sample is taken on 3.8% sodium citrate (1 volume for 9 blood volumes) by abdominal aortic puncture after the animal has been anesthetized with sodium pentobarbital. The platelet-rich plasma (PRP) is obtained by centrifugation of the blood at 300 g for 5 minutes, and the platelet aggregation measurements are carried out as described above. The results are calculated using the area under the curve of absorbance measured for 6 minutes, and expressed by the percentage inhibition. The platelet aggregation measurements are carried out at 37° C. in glass tubes (Chrono-Log aggregometer—Kordia). 4 μl of the test compound (solution 100 times more concentrated than the desired final concentration, in DMSO) are mixed with 392 μl of fresh PRP, and incubated for 1 minute with stirring. Then, 4 μl of a solution of ADP at 250 μM are added to the mixture. The aggregation measurements are monitored for 6 to 8 minutes, with constant stirring, by recording the variations in the optical density according to the method of G.V.R. BORN (Born Nature (1962) 194, 927).

[4] = oral gavage, t = 2 h after administration, read-out: Inhibition of platelet aggregation ex vivo (rat blood), Gavage (oral)

## CCCC(=O)c1cnn([C@H]2CC[C@H](NC(=O)c3cn(CC(=O)N4CCN(CCOC)CC4)c4ccc(Cl)cc34)CC2)c1C (as salt: hydrochloride) [Compound 2, 5-Chloro-1-{2-[4-(2-methoxyethyl)piperazin-1-yl]-2-oxoethyl}-1H-indole-3-carboxylic acid [4-(4-butyryl-5-methylpyrazol-1-yl)cyclohexyl]-amide hydrochloride]
other
  melting point: 263 °C

## CCCC(=O)c1cnn([C@H]2CC[C@H](NC(=O)c3cn(CC(=O)N4CCN(CCC(F)(F)F)CC4)c4ccc(Cl)cc34)CC2)c1C (as salt: hydrochloride) [Compound 3, 5-Chloro-1-{2-oxo-2-[4-(3,3,3-trifluoropropyl)piperazin-1-yl]ethyl}-1H-indole-3-carboxylic acid [4-(4-butyryl-5-methylpyrazol-1-yl)cyclohexyl]amide hydrochloride]
other
  melting point: 249 °C

## CCCC(=O)c1cnn([C@H]2CC[C@H](NC(=O)c3cn(CC(=O)N4CCN(C)CC4)c4ccc(Cl)cc34)CC2)c1C [Compound 1, 5-Chloro-1-[2-(4-methylpiperazin-1-yl)-2-oxoethyl]-1H-indole-3-carboxylic acid [4-(4-butyryl-5-methyl-pyrazol-1-yl)-cyclohexyl]amide hydrochloride]
[1]
  IC50: 270 nM
[2]; 0.5 h, intravenous infusion, 30 min after administration, read-out: Inhibition of platelet aggregation ex vivo (rat blood), Infusion (Intravenous)
  inhibition at 3 mg/kg: 79 ± 5%
[2]; [4]
  inhibition at 3 mg/kg: 42.8 ± 10.7%
[3]
  IC50: 91 nM

## CCCC(=O)c1cnn([C@H]2CC[C@H](NC(=O)c3cn(CC(=O)N4CCN(CCOC)CC4)c4ccc(Cl)cc34)CC2)c1C [Compound 2, 5-Chloro-1-{2-[4-(2-methoxyethyl)piperazin-1-yl]-2-oxoethyl}-1H-indole-3-carboxylic acid [4-(4-butyryl-5-methylpyrazol-1-yl)cyclohexyl]-amide hydrochloride]
[3]
  IC50: 80 nM

## CCCC(=O)c1cnn([C@H]2CC[C@H](NC(=O)c3cn(CC(=O)N4CCN(CCC(F)(F)F)CC4)c4ccc(Cl)cc34)CC2)c1C [Compound 3, 5-Chloro-1-{2-oxo-2-[4-(3,3,3-trifluoropropyl)piperazin-1-yl]ethyl}-1H-indole-3-carboxylic acid [4-(4-butyryl-5-methylpyrazol-1-yl)cyclohexyl]amide hydrochloride]
[3]
  IC50: 294 nM

## CCCC(=O)c1cnn(C2CCN(NC(=O)c3cn(CC(=O)N4CCN(C)CC4)c4ccc(Cl)cc34)CC2)c1C [Compound 4, 5 -Chloro-1-[2-(4-methylpiperazin-1-yl)-2-oxoethyl]-1H-indole-3-carboxylic acid [4-(4-butyryl-5-methylpyrazol-1-yl)piperidin-1-yl]amide hydrochloride]
[1]
  IC50: 25 nM
[2]; intravenous infusion, dose 1 mg/kg, t = 2 h after administration
  inhibition at 1 mg/kg: 88 ± 5%
[2]; [4]
  inhibition at 3 mg/kg: 72 ± 15%
[3]
  IC50: 43 nM

## CCCC(=O)c1cnn(C2CCN(NC(=O)c3cn(CC(=O)N4CCN(CCOC)CC4)c4ccc(Cl)cc34)CC2)c1C [Compound 5, 5-Chloro-1-{2-[4-(2-methoxyethyl)piperazin-1-yl]-2-oxoethyl}-1H-indole-3-carboxylic acid [4-(4-butyryl-5-methylpyrazol-1-yl-piperidin-1-yl]amide hydrochloride]
[3]
  IC50: 17 nM

## CCCC(=O)c1cnn(C2CCN(NC(=O)c3cn(CC(=O)N4CCN(CCOC(F)(F)F)CC4)c4ccc(Cl)cc34)CC2)c1C [Compound 6, 5-Chloro-1-{2-oxo-2-[4-(2-trifluoromethoxyethyl)piperazin-1-yl]ethyl}-1H-indole-3-carboxylic acid [4-(4-butyryl-5-methylpyrazol-1-yl)piperidin-1-yl]amide hydrochloride]
[3]
  IC50: 46 nM
